Here are results for 4 compounds from patent publication US20240000084A1, “ANTI[…], ANTIBACTERIAL AGENT, ANTIVIRAL AGENT, PATHOGEN DISPOSAL DEVICE, ANTI[…] PRODUCTION METHOD, ANTIBACTERIAL TREATMENT METHOD, VIRUS INACTIVATION METHOD, AND PATHOGEN DISPOSAL METHOD” (ACENET INC., priority 2020, published 2024).

Where two headings read alike, the source gives them in different places.

Experiment [1] is described as follows: Lewis acidity measuring method (1): reaction rate constant of reaction between CoTPP and oxygen in the presence of a Lewis acid. It is filed as physicochemical. An excerpt:
Chem. Soc. […] Specifically, the Lewis acidity can be measured by the following “Lewis acidity measuring method (1)”, which is herein incorporated by reference.
As to acetonitrile (MeCN) that contains cobalt tetraphenylporphyrin, saturated O2, and an object whose Lewis acidity is to be measured (e.g., a cation of a metal or the like, represented by M^n+ in the following chemical reaction formula (1a)) in the following chemical reaction formula (1a), the change of the ultraviolet-visible absorption spectrum is measured at room temperature. On the basis of the obtained reaction rate constant (kcat), the ΔE value (eV), which is an indicator of the Lewis acidity, can be calculated. The higher the kcat, the stronger the Lewis acidity. Furthermore, the Lewis acidity of an organic compound can be estimated from the energy level of the lowest unoccupied molecular orbital (LUMO) calculated by the quantum chemical calculation. The higher the value at the positive side, the stronger the Lewis acidity.
In the following table, the numerical value expressed in the unit “kcat, M^−2s^−1” is a reaction rate constant of a reaction between CoTPP and oxygen in the presence of a Lewis acid. The numerical value expressed in the unit “LUMO, eV” is the energy level of LUMO.

In experiment [2] the test system is bacteria A (any one of Staphylococcus aureus, Escherichia coli MV1184, Streptococcus pyogenes, Streptcoccus mutans, Porphyromonas gingivalis, Treponema …). In words: Bactericidal action on bacteria A-containing material (Experimental Example 1). It is filed as cell-based. To be noted: chlorine dioxide generated by bringing ozone gas into contact with a radical source; cultured after contact.

As to `CC(C)(C)CC(C)(C)c1ccc(OCCOCC[N+](C)(C)Cc2ccccc2)cc1.[Cl-]` [benzethonium chloride], the “kcat, reaction rate constant of reaction between CoTPP and oxygen in the presence of a Lewis acid” value (shortened to “kcat, reaction rate constant”) in experiment [1] worked out at 0.24 M^−2 s^−1.

Turning to `[O][Cl+][O-]` [chlorine dioxide], the “bactericidal effect on bacteria A” value in experiment [2] is listed as “exhibits a bactericidal effect”.

For the compound `CCCC[N+](CCCC)(CCCC)CCCC.F[P-](F)(F)(F)(F)F` [tetrabutylammonium hexafluorophosphate], in experiment [1], the “kcat, reaction rate constant” value was greater than 0.1 M^−2 s^−1.

For benzalkonium chloride, the “kcat, reaction rate constant” value in experiment [1] (acetonitrile, saturated O2, room temperature) was 0.18 M^−2 s^−1.
